{
  "source": "patent US8691218B2",
  "about": "“Vermin extermination using lysozyme, salt or biological fragment thereof, or lysozyme-related peptide as an egg recognition pheromone” (National University Corporation Okayama University, priority 2007, dated 2014)",
  "system": "Reticulitermes speratus workers (worker termites)",
  "experiment": "egg recognition activity: conveyance of coated mimetic eggs (glass beads) into the egg mass in a petri dish",
  "format": "in vivo",
  "details": "lysozyme samples tested on termites",
  "protocol": "Egg recognition activities of a termite egg extract, lysozyme purified from the termite egg extract, a termite egg extract degraded by proteinase, egg white lysozyme, cellulase, a mixture of egg white lysozyme and cellulase, and 30% glycerin aqueous solution as a control were investigated by using Reticulitermes speratus workers (worker termites).\nEach test samples was prepared as follows.\n800 μL of ultrapure water was added to 400 mg of Reticulitermes speratus eggs in an Eppendorf tube, and homogenized, and subjected to ultrasonic treatment for 5 minutes, and centrifugation was performed at 15,000 rpm for 30 minutes. The supernatant was lyophilized, and 5.0 mg of the lyophilized powder was dissolved in 100 μL of 30% glycerin aqueous solution (termite egg extract). The termite egg extract prepared in the same manner as described above was purified by BioRex 70 (BioRad Laboratories, CA, USA) cation-exchange resin, and further, lysozyme fractions were isolated by Q-1 column chromatography (BioRad Laboratories, CA, USA) and Methyl HIC column chromatography (BioRad Laboratories, CA, USA), and 1.0 mg of lyophilized powder thereof was dissolved in 20 μL of 30% glycerin aqueous solution (lysozyme isolated from termite egg extract). […]",
  "data": [
    {"substance": "lysozyme derived from chicken egg white: egg white lysozyme (SIGMA) dissolved in 30% glycerin aqueous solution", "values": [
      {"measurement": "egg recognition activity of termites", "value": "high activity"}
    ]}
  ]
}
